Data reported in US8188272B2, “Fused heterocyclic compounds useful as kinase modulators” (Bristol-Myers Squibb Company, priority 2007, dated 2012).
Each block holds one compound with its values, some of them ahead of it.

Legend:
Ramos RA1 B cells = assay: Ramos FLIPR Assay (intracellular calcium); assay type: cell-based; conditions: Homo sapiens; Ramos RA1 B cells stimulated with F(ab')2 anti-IgM/IgG, peak intracellular calcium; read-out: Human Ramos Cell FLIPR (IC50 uM)
Protocol: Ramos RA1 B cells (ATCC CRL-1596) at a density of 2×10^6 cells/ml in RPMI minus phenol red (Invitrogen 11835-030) and 50 mM HEPES (Invitrogen 15630-130) containing 0.1% BSA (Sigma A8577) were added to one half volume of calcium loading buffer (BD bulk kit for probenecid sensitive assays, # 640177) and incubated at room temperature in the dark for 1 hour. Dye-loaded cells were pelleted (Beckmann GS-CKR, 1200 rpm, RT, 5 minutes) and resuspended in RT RPMI minus phenol red with 50 mM HEPES and 10% FBS to a density of 1×10^6 cells/ml. 150 μl aliquots (150,000/well) were plated into 96 well poly-D-lysine coated assay plates (BD 35 4640) and briefly centrifuged (Beckmann GS-CKR 800 rpm, 5 minutes, without brake). 50 μl compound dilutions in 0.4% DMSO/RPMI minus phenol red+50 mM HEPES+10% FBS were added to the wells and the plate was incubated at RT in the dark for 1 hour. Assay plate was briefly centrifuged as above prior to measuring calcium levels.
Using the FLIPR1 (Molecular devices), cells were stimulated by adding 50 μl 200 μg/ml F(ab′)2 anti-IgM/IgG (Jackson ImmunoResearch 109-006-127) diluted in 1X HBSS (Invitrogen 14025-076), 50 mM HEPES, 0.1% BSA. Changes in intracellular calcium concentrations were measured for 180 seconds and percent inhibition was determined relative to peak calcium levels seen in the presence of F(ab′)2 anti-IgM/IgG only.

human recombinant Btk = target: T1, human recombinant Btk (Homo sapiens, UniProt Q06187); assay: Human Recombinant Btk Enzyme Assay; assay type: biochemical; conditions: human recombinant Btk 1 nM, ATP 20 μM, 60 min room temperature, Caliper LabChip
T1 construct: purchased Invitrogen Corporation
T1 sequence (Q06187 whole entry): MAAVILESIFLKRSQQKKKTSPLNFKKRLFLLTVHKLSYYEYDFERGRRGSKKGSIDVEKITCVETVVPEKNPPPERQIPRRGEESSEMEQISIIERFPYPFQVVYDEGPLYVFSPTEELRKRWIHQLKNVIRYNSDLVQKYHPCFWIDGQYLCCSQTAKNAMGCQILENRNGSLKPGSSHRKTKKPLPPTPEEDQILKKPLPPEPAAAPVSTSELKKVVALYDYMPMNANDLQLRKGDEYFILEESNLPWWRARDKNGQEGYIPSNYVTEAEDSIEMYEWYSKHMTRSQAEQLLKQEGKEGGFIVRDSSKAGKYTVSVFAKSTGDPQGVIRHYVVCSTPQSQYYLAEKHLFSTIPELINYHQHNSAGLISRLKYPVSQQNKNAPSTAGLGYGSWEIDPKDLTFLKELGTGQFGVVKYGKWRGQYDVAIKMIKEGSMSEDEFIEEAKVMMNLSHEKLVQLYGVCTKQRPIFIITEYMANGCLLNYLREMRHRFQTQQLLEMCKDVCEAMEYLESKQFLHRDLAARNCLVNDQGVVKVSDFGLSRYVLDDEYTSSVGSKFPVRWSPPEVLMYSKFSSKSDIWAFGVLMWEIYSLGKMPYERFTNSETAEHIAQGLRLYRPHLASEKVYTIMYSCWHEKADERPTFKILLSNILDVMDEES
Protocol: Human Recombinant Btk Enzyme Assay
To V-bottom 384-well plates were added test compounds, human recombinant Btk (1 nM, Invitrogen Corporation), fluoresceinated peptide (1.5 μM), ATP (20 μM), and assay buffer (20 mM HEPES pH 7.4, 10 mM MgCl2, 0.015% Brij35 and 4 mM DTT in 1.6% DMSO), with a final volume of 30 μL. After incubating at room temperature for 60 min, the reaction was terminated by adding 45 μl of 35 mM EDTA to each sample. The reaction mixture was analyzed on the Caliper LabChip 3000 (Caliper, Hopkinton, Mass.) by electrophoretic separation of the fluorescent substrate and phosphorylated product. Inhibition data were calculated by comparison to no enzyme control reactions for 100% inhibition and no inhibitor controls for 0% inhibition. Dose response curves were generated to determine the concentration required inhibiting 50% of kinase activity (IC50). Compounds were dissolved at 10 mM in dimethylsulfoxide (DMSO) and evaluated at eleven concentrations.
Using this assay, the following IC50 values derived by non-linear regression analysis were determined and compared to those values of certain compounds in US 2007/0078136 and US 2008/0045536.

Mouse splenic B cells = assay: Mouse Splenic B Cell Proliferation Assay; assay type: cell-based; conditions: Balb/c splenic B cells stimulated with anti-mouse IgG IgM F(ab')2 10 μg/ml, 72 hours, 3[H]-thymidine
Protocol: Mouse Splenic B Cell Proliferation Assay
Spleens from Balb/c mice (<12 weeks old) were mashed through screens and red blood cells were removed from splenocytes with RBC lysing buffer (Sigma-Aldrich Chemical Co, —St. Louis, Mo.). T cells were depleted by incubation on nylon wool columns (Wako, Richmond, Va.). Resulting splenic B cells prepared this way were routinely >90% CD19^+ as measured by FACS analysis. B cells (1×10^5 cells per well) were added to serial dilutions of compounds in triplicate in 96-well flat-bottom plates in RPMI 1640 (Invitrogen, Grand Island, N.Y.), supplemented with 10% heat-inactivated fetal calf serum (FCS, Summit Biotechnology, Fort Collins, Colo.), containing 1% L-glutamine (Invitrogen), […] gentamicin (Invitrogen) and 5×10^−5M β-mercaptoethanol (Sigma-Aldrich). Cells were stimulated with 10 μg/ml of Affinipure F(ab′)2 fragment goat anti-mouse IgG IgM (Jackson Immunoresearch, West Grove, Pa.). Cultures were incubated for 72 hours, and pulsed for the last 6 hours with one μCi/well of ^3[H]-thymidine (PerkinElmer, Boston, Mass.) prior to harvest on a Packard cell harvester (PerkinElmer), and counted by liquid scintillation on a Packard TopCount NXT (PerkinElmer).

Human tonsillar B cells = assay: Human Tonsillar B Cell Proliferation Assay; assay type: cell-based; conditions: tonsillar B cells stimulated with anti Human IgG+IgM F(ab')2 40 μg/ml, 72 hours, 3[H]-thymidine
Description: Human Tonsillar B Cell Proliferation Assay
Tonsils were excised from patients undergoing routine tonsillectomy. Tonsil tissue was minced, mashed through screens and mononuclear cells were isolated on ficoll density gradients (Lymphocyte Separation Media; Mediatech Inc., Herndon, Va.). T cells were depleted from mononuclear cells by rosetting with sheep red blood cells (SRBC, Colorado Serum Company; Denver, Colo.). Tonsillar B cells prepared by this method were routinely >95% CD19^+ as measured by FACS analysis. B cells (1×10^5 cells per well) were added to serial dilutions of compounds in triplicate in 96-well flat-bottom plates in RPMI 1640, (Invitrogen, Grand Island, N.Y.), supplemented with 10% heat-inactivated fetal calf serum (FCS, Summit Biotechnology, Fort Collins, Colo.), and containing antibiotic/antimycotic (Invitrogen, 1:100 dilution) and gentamicin (Invitrogen, 5 μg/ml). Cells were stimulated with 40 μg/ml AffinPure F(ab′)2 Fragment Goat anti Human IgG+IgM (Jackson Immunoresearch, West Grove, Pa.) in a total volume of 0.2 ml. Cultures were incubated for 72 hours, and pulsed for the last 6 hours with one μCi/well of ^3[H]-thymidine (PerkinElmer, Boston, Mass.) prior to harvest on a Packard cell harvester (PerkinElmer), and counted by liquid scintillation on a Packard TopCount NXT (PerkinElmer).

IC50 (Ramos RA1 B cells): 4.08 µM
IC50 (human recombinant Btk): 0.8 µM
SMILES: CC(C)(C)c1ccc(C(=O)N[C@H]2CCCN(c3nc(Nc4ccc(C(=O)N5CCOCC5)cc4)c4nccn4n3)C2)cc1 [Example 2, (S)-4-tert-Butyl-N-(1-(4-(4-(morpholine-4-carbonyl)phenylamino)imidazo[1,2-f][1,2,4]triazin-2-yl)piperidin-3-yl)benzamide]

IC50 (Ramos RA1 B cells): 0.015 µM
SMILES: CC(C)(C)c1ccc(C(=O)N[C@@H]2CCCN(c3nc(Nc4ccc(C(=O)N5CCOCC5)cc4)c4ncc(N)n4n3)C2)cc1 [Example 26, (R)—N-(1-(7-Amino-4-(4-(morpholine-4-carbonyl)phenylamino)imidazo[1,2-f][1,2,4]triazin-2-yl)piperidin-3-yl)-4-tert-butylbenzamide]
IC50 (Mouse splenic B cells): 0.08 µM

IC50 (human recombinant Btk): > 50 µM
SMILES: Cc1c(N[C@H]2CC[C@H](N)CC2)nn2ccnc2c1Nc1ccc(C(=O)N2CCOCC2)cc1 [III(18) in US 2008/0045536, reference compound]

IC50 (Ramos RA1 B cells): 0.26 µM
SMILES: CC(C)(C)c1ccc(C(=O)N[C@@H]2CCCN(c3nc(Nc4ccc(C(=O)N5CCOCC5)cc4)c4nccn4n3)C2)cc1 [Example 1, (R)-4-tert-Butyl-N-(1-(4-(4-(morpholine-4-carbonyl)phenylamino)imidazo[1,2-f][1,2,4]triazin-2-yl)piperidin-3-yl)benzamide]

IC50 (human recombinant Btk): 0.014 µM
SMILES: Nc1cnc2c(Nc3ccc(C(=O)N4CCOCC4)cc3)nc(N3CCC[C@@H](NC(=O)c4cc5ccccc5[nH]4)C3)nn12 [Example 28, (R)—N-(1-(7-Amino-4-(4-(morpholine-4-carbonyl)phenylamino)imidazo[1,2-f][1,2,4]triazin-2-yl)piperidin-3-yl)-1H-indole-2-carboxamide]

IC50 (human recombinant Btk): 0.2 µM
SMILES: O=C(N[C@@H]1CCCN(c2nc(Nc3ccc(C(=O)N4CCOCC4)cc3)c3nccn3n2)C1)OCc1ccccc1 [Example 4, (R)-Benzyl 1-(4-(4-(morpholine-4-carbonyl)phenylamino)imidazo[1,2-f][1,2,4]triazin-2-yl)piperidin-3-ylcarbamate]

IC50 (Ramos RA1 B cells): 1.24 µM
SMILES: NCc1cnc2c(Nc3ccc(C(=O)N4CCOCC4)cc3)nc(N3CCC[C@@H](NC(=O)c4cc5ccccc5[nH]4)C3)nn12 [Example 35, (R)—N-(1-(7-(Aminomethyl)-4-(4-(morpholine-4-carbonyl)phenylamino)imidazo[1,2-f][1,2,4]triazin-2-yl)piperidin-3-yl)-1H-indole-2-carboxamide]

IC50 (human recombinant Btk): 1.96 µM
SMILES: O=C(c1ccc(Nc2cc(N[C@H]3CCCNC3)nn3ccnc23)cc1)N1CCOCC1 [V(10) in US 2008/0045536, reference compound]

IC50 (Ramos RA1 B cells): 0.028 µM
IC50 (human recombinant Btk): 0.013 µM
SMILES: CC(C)(C)c1ccc(C(=O)N[C@@H]2CCCN(c3nc(Nc4ccc(C(=O)N5CCNCC5)cc4)c4nccn4n3)C2)cc1 [Example 11, (R)-4-tert-Butyl-N-(1-(4-(4-(piperazine-1-carbonyl)phenylamino)imidazo[1,2-f][1,2,4]triazin-2-yl)piperidin-3-yl)benzamide]

Continued, compound first:

SMILES: O=C(N[C@@H]1CCCN(c2nc(Nc3ccc(C(=O)N4CCOCC4)cc3)c3nccn3n2)C1)c1ccccc1 [Example 36, (R)—N-(1-(4-(4-(morpholine-4-carbonyl)phenylamino)imidazo[1,2-f][1,2,4]triazin-2-yl)piperidin-3-yl)benzamide]
IC50 (Human tonsillar B cells): 0.45 µM

SMILES: CC(C)(C)c1ccc(C(=O)N[C@@H]2CCCN(c3nc(Nc4ccc(C(N)=O)cc4)c4nccn4n3)C2)cc1 [Example 10, (R)-4-tert-Butyl-N-(1-(4-(4-carbamoylphenylamino)imidazo[1,2-f][1,2,4]triazin-2-yl)piperidin-3-yl)benzamide]
IC50 (Mouse splenic B cells): 0.33 µM

SMILES: CC(C)(C)c1ccc(C(=O)N[C@@H]2CCCN(c3nc(Nc4ccc(C(=O)N5CCN(CCO)CC5)cc4)c4nccn4n3)C2)cc1 [Example 6, (R)-4-tert-Butyl-N-(1-(4-(4-(4-(2-hydroxyethyl)piperazine-1-carbonyl)phenylamino)imidazo[1,2-f][1,2,4]triazin-2-yl)piperidin-3-yl)benzamide]
IC50 (Human tonsillar B cells): 0.17 µM

SMILES: CN1CCN(C(=O)c2ccc(Nc3nc(N4CCC[C@@H](NC(=O)c5ccc(C(C)(C)C)cc5)C4)nn4ccnc34)cc2)CC1 [Example 5, (R)-4-tert-Butyl-N-(1-(4-(4-(4-methylpiperazine-1-carbonyl)phenylamino)imidazo[1,2-f][1,2,4]triazin-2-yl)piperidin-3-yl)benzamide]
IC50 (Human tonsillar B cells): 0.037 µM

SMILES: CC(C)(C)c1ccc(C(=O)N[C@@H]2CCCN(c3nc(Nc4ccc(C(=O)N5CC(O)C5)cc4)c4nccn4n3)C2)cc1 [Example 20]
IC50 (human recombinant Btk): 0.081 µM

SMILES: CCOc1ccc(Nc2nc(N[C@H]3CC[C@H](N)CC3)nn3ccnc23)cc1 [XIII in US 2007/0078136, reference compound]
IC50 (human recombinant Btk): 1.76 µM

SMILES: CC(C)(C)c1ccc(C(=O)N[C@@H]2CCCN(c3nc(Nc4ccc(C(=O)N[C@@H]5CCNC5)cc4)c4nccn4n3)C2)cc1 [Example 9, 4-tert-Butyl-N—((R)-1-(4-(4-((S)-pyrrolidin-3-ylcarbamoyl)phenylamino)imidazo[1,2-f][1,2,4]triazin-2-yl)piperidin-3-yl)benzamide]
IC50 (Human tonsillar B cells): 1.91 µM
IC50 (Mouse splenic B cells): 1.29 µM

SMILES: CC(C)(C)c1ccc(C(=O)N[C@@H]2CCCN(c3nc(Nc4ccc(C(=O)N5CCOCC5)cc4)c4ncc(C#N)n4n3)C2)cc1 [Example 32, (R)-4-tert-Butyl-N-(1-(7-cyano-4-(4-(morpholine-4-carbonyl)phenylamino)imidazo[1,2-f][1,2,4]triazin-2-yl)piperidin-3-yl)benzamide]
IC50 (human recombinant Btk): 0.1 µM
IC50 (Mouse splenic B cells): 0.31 µM

SMILES: NC(=O)c1cnc2c(Nc3ccc(C(=O)N4CCOCC4)cc3)nc(N3CCC[C@@H](NC(=O)c4ccccc4)C3)nn12 [Example 30, (R)-2-(3-Benzamidopiperidin-1-yl)-4-(4-(morpholine-4-carbonyl)phenylamino)imidazo[1,2-f][1,2,4]-triazine-7-carboxamide]
IC50 (Mouse splenic B cells): 0.98 µM

SMILES: N[C@H]1CC[C@H](Nc2cc(Nc3ccc4ccccc4n3)c3nccn3n2)CC1 [I(159) in US 2008/0045536, reference compound]
IC50 (human recombinant Btk): 0.228 µM

SMILES: CC(C)(C)c1ccc(C(=O)N[C@@H]2CCCN(c3nc(Nc4ccc(C(=O)N[C@H]5CCNC5)cc4)c4nccn4n3)C2)cc1 [Example 12, 4-tert-Butyl-N—((R)-1-(4-(4-((R)-pyrrolidin-3-ylcarbamoyl)phenylamino)imidazo[1,2-f][1,2,4]triazin-2-yl)piperidin-3-yl)benzamide]
IC50 (Human tonsillar B cells): 1.58 µM
